From patent publication EP0090603A2, “Antibacterial compounds” (BEECHAM GROUP PLC, priority 1982, dated 1983)
Converted amounts (≈) assume the structure as drawn.

Tests used:
Format in all cases: cell-based
M. suipneumoniae NB12 = assay: MIC against Mycoplasma, in vitro agar dilution; conditions: Friis broth solidified with 0.9% agarose, 10^3 to 10^5 C.F.U., 6 days at 37°C; for MIC: Mesomycoplasma hyopneumoniae, NB12, 144 h, read-out: MIC's against M. suipneumoniae NB12
M. suipneumoniae JF 435 = assay: MIC against Mycoplasma, in vitro agar dilution; conditions: Friis broth solidified with 0.9% agarose, 10^3 to 10^5 C.F.U., 6 days at 37°C; for MIC: Mesomycoplasma hyopneumoniae, JF435, 144 h, read-out: MIC's against M. suipneumoniae JF 435
M. suipneumoniae HK(2) = assay: MIC against Mycoplasma, in vitro agar dilution; conditions: Friis broth solidified with 0.9% agarose, 10^3 to 10^5 C.F.U., 6 days at 37°C; for MIC: Mesomycoplasma hyopneumoniae, 144 h, read-out: MIC's against M. suipneumoniae HK(2)
M. suipneumoniae Str. 11 = assay: MIC against Mycoplasma, in vitro agar dilution; conditions: Friis broth solidified with 0.9% agarose, 10^3 to 10^5 C.F.U., 6 days at 37°C; for MIC: Mesomycoplasma hyopneumoniae, STR.11, 144 h, read-out: MIC's against M. suipneumoniae Str. 11
[1] = test system: M. suipneumoniae J2206/183^b; assay: MIC against Mycoplasma, in vitro agar dilution; conditions: Friis broth solidified with 0.9% agarose, 10^3 to 10^5 C.F.U., 6 days at 37°C; for MIC: Mesomycoplasma hyopneumoniae, 144 h, read-out: MIC's against M. suipneumoniae J2206/183^b
M. suipneumoniae MS 16 = assay: MIC against Mycoplasma, in vitro agar dilution; conditions: Friis broth solidified with 0.9% agarose, 10^3 to 10^5 C.F.U., 6 days at 37°C; for MIC: Mesomycoplasma hyopneumoniae, MS16, 144 h, read-out: MIC's against M. suipneumoniae MS 16
[2] = test system: M. suipneumoniae PW/C/210; assay: MIC against Mycoplasma, in vitro agar dilution; conditions: Friis broth solidified with 0.9% agarose, 10^3 to 10^5 C.F.U., 6 days at 37°C; for MIC: Mesomycoplasma hyopneumoniae, 144 h, read-out: MIC's against M. suipneumoniae PW/C/210
M. suipneumoniae LABER = assay: MIC against Mycoplasma, in vitro agar dilution; conditions: Friis broth solidified with 0.9% agarose, 10^3 to 10^5 C.F.U., 6 days at 37°C; for MIC: Mesomycoplasma hyopneumoniae, 144 h, read-out: MIC's against M. suipneumoniae LABER
M. suipneumoniae UCD 1 = assay: MIC against Mycoplasma, in vitro agar dilution; conditions: Friis broth solidified with 0.9% agarose, 10^3 to 10^5 C.F.U., 6 days at 37°C; for MIC: Mesomycoplasma hyopneumoniae, UCD1, 144 h, read-out: MIC's against M. suipneumoniae UCD 1
M. suipneumoniae TAM 6N = assay: MIC against Mycoplasma, in vitro agar dilution; conditions: Friis broth solidified with 0.9% agarose, 10^3 to 10^5 C.F.U., 6 days at 37°C; for MIC: Mesomycoplasma hyopneumoniae, TAM6N, 144 h, read-out: MIC's against M. suipneumoniae TAM 6N
[3] = test system: M. suipneumoniae ATCC 25095; assay: MIC against Mycoplasma, in vitro agar dilution; conditions: Friis broth solidified with 0.9% agarose, 10^3 to 10^5 C.F.U., 6 days at 37°C; for MIC: Mesomycoplasma hyopneumoniae, ATCC25095, 144 h, read-out: MIC's against M. suipneumoniae ATCC 25095
[4] = test system: M. suipneumoniae NCTC 10110; assay: MIC against Mycoplasma, in vitro agar dilution; conditions: Friis broth solidified with 0.9% agarose, 10^3 to 10^5 C.F.U., 6 days at 37°C; for MIC: Mesomycoplasma hyopneumoniae, NCTC10110, 144 h, read-out: MIC's against M. suipneumoniae NCTC 10110
M. hyorhinis ATCC 23234 = assay: MIC against Mycoplasma, in vitro agar dilution; conditions: Friis broth solidified with 0.9% agarose, 10^3 to 10^5 C.F.U., 6 days at 37°C; for MIC: Mesomycoplasma hyorhinis, ATCC23234, 144 h, read-out: MIC's against M. hyorhinis ATCC 23234
M. hyorhinis ATCC 25021 = assay: MIC against Mycoplasma, in vitro agar dilution; conditions: Friis broth solidified with 0.9% agarose, 10^3 to 10^5 C.F.U., 6 days at 37°C; for MIC: Mesomycoplasma hyorhinis, ATCC25021, 144 h, read-out: MIC's against M. hyorhinis ATCC 25021
[5] = test system: M. hyosynoviae ATCC 25591; assay: MIC against Mycoplasma, in vitro agar dilution; conditions: Friis broth solidified with 0.9% agarose, 10^3 to 10^5 C.F.U., 6 days at 37°C; for MIC: 144 h, read-out: MIC's against M. hyosynoviae ATCC 25591
M. bovis NCTC 10131 = assay: microbe, parasite or virus in culture; conditions: for MIC: NCTC10131, 144 h, read-out: MIC's against M. bovis NCTC 10131; for MIC's against M. bovis NCTC 10131: Friis broth solidified with 0.9% agarose, 10^3 to 10^5 C.F.U., 6 days at 37°C
[6] = test system: M. bovigenitalium ATCC 14173; assay: MIC against Mycoplasma, in vitro agar dilution; conditions: Friis broth solidified with 0.9% agarose, 10^3 to 10^5 C.F.U., 6 days at 37°C; for MIC: 144 h, read-out: MIC's against M. bovigenitalium ATCC 14173
M. dispar NCTC 10125 = assay: MIC against Mycoplasma, in vitro agar dilution; conditions: Friis broth solidified with 0.9% agarose, 10^3 to 10^5 C.F.U., 6 days at 37°C; for MIC: 144 h, read-out: MIC's against M. dispar NCTC 10125
M. gallisepticum S6 = assay: MIC against Mycoplasma, in vitro agar dilution; conditions: Friis broth solidified with 0.9% agarose, 10^3 to 10^5 C.F.U., 6 days at 37°C; for MIC: Mycoplasmoides gallisepticum, S6, 144 h, read-out: MIC's against M. gallisepticum S6
M. pneumoniae ATCC 15492 = assay: MIC against Mycoplasma, in vitro agar dilution; conditions: Friis broth solidified with 0.9% agarose, 10^3 to 10^5 C.F.U., 6 days at 37°C; for MIC: Mycoplasmoides pneumoniae, ATCC15492, 144 h, read-out: MIC's against M. pneumoniae ATCC 15492

Row | Compound | MIC (M. suipneumoniae NB12) | MIC (M. suipneumoniae JF 435) | MIC (M. suipneumoniae HK(2)) | MIC (M. suipneumoniae Str. 11) | MIC [1] | MIC (M. suipneumoniae MS 16) | MIC [2] | MIC (M. suipneumoniae LABER) | MIC (M. suipneumoniae UCD 1) | MIC (M. suipneumoniae TAM 6N) | MIC [3] | MIC [4] | MIC (M. hyorhinis ATCC 23234) | MIC (M. hyorhinis ATCC 25021) | MIC [5] | MIC (M. bovis NCTC 10131) | MIC [6] | MIC (M. dispar NCTC 10125) | MIC (M. gallisepticum S6) | MIC (M. pneumoniae ATCC 15492) | also measured
1 | CC(CC1OCC(CC2OC2C(C)C(C)O)C(O)C1O)=C(C)C(=O)OCCCCCCCCC(=O)O [Example 7, Sodium 9-[4-(5S-(2S,3S-epoxy-5S-hydroxy-4S-methylhexyl) -3R,4R-dihdroxytetrahydroxyran-2S-yl)-2,3-dimethylbut-2(E)-enoyloxy]nonanoate] | 10 µg/mL | > 10 µg/mL | > 10 µg/mL | 5 µg/mL | > 10 µg/mL | 5 µg/mL | 5 µg/mL | 5 µg/mL | > 10 µg/mL | > 10 µg/mL | 10 µg/mL | 10 µg/mL | 2.5 µg/mL | 2.5 µg/mL | 1 µg/mL | 0.05 µg/mL | 0.5 µg/mL | 2.5 µg/mL | > 10 µg/mL | > 10 µg/mL | –
2 | 8-Hydroxyoctyl 2-methylmonate A [Example 13] | – | – | – | – | – | – | – | – | – | – | – | – | – | – | – | – | – | – | – | – | MIC's against M. suipneumoniae NB12 (M. suipneumoniae NB12): 1.0 µg/mL; MIC's against M. suipneumoniae JF 435 (M. suipneumoniae JF 435): 1.0 µg/mL; MIC's against M. suipneumoniae HK(2) (M. suipneumoniae HK(2)): 1.0 µg/mL; MIC's against M. suipneumoniae Str. 11 (M. suipneumoniae Str. 11): 0.5 µg/mL; MIC's against M. suipneumoniae J2206/183^b [1]: 1.0 µg/mL; MIC's against M. suipneumoniae MS 16 (M. suipneumoniae MS 16): 0.5 µg/mL; MIC's against M. suipneumoniae PW/C/210 [2]: 0.5 µg/mL; MIC's against M. suipneumoniae LABER (M. suipneumoniae LABER): 0.5 µg/mL; MIC's against M. suipneumoniae UCD 1 (M. suipneumoniae UCD 1): 1.0 µg/mL; MIC's against M. suipneumoniae TAM 6N (M. suipneumoniae TAM 6N): 1.0 µg/mL; MIC's against M. suipneumoniae ATCC 25095 [3]: 0.5 µg/mL; MIC's against M. suipneumoniae NCTC 10110 [4]: 1.0 µg/mL; MIC's against M. hyorhinis ATCC 23234 (M. hyorhinis ATCC 23234): 0.5 µg/mL; MIC's against M. hyorhinis ATCC 25021 (M. hyorhinis ATCC 25021): 0.5 µg/mL; MIC's against M. hyosynoviae ATCC 25591 [5]: 0.1 µg/mL; MIC's against M. bovis NCTC 10131 (M. bovis NCTC 10131): ≤0.01 µg/mL; MIC's against M. bovigenitalium ATCC 14173 [6]: 0.05 µg/mL; MIC's against M. dispar NCTC 10125 (M. dispar NCTC 10125): 0.1 µg/mL; MIC's against M. gallisepticum S6 (M. gallisepticum S6): 5.0 µg/mL; MIC's against M. pneumoniae ATCC 15492 (M. pneumoniae ATCC 15492): 1.0 µg/mL
3 | CC(CC1OCC(CC2OC2C(C)C(C)O)C(O)C1O)=C(C)C(=O)OCc1cc(C)no1 (stereo not shown) [Example 14, 3-Methyl-5-isoxazolylmethyl 2-methylmonate A] | 0.5 µg/mL (≈ 1.1 µM) | 0.5 µg/mL (≈ 1.1 µM) | 0.5 µg/mL (≈ 1.1 µM) | 0.25 µg/mL (≈ 0.551 µM) | 0.5 µg/mL (≈ 1.1 µM) | 0.25 µg/mL (≈ 0.551 µM) | 0.25 µg/mL (≈ 0.551 µM) | 0.25 µg/mL (≈ 0.551 µM) | 0.5 µg/mL (≈ 1.1 µM) | 1 µg/mL (≈ 2.2 µM) | 0.5 µg/mL (≈ 1.1 µM) | 0.5 µg/mL (≈ 1.1 µM) | 0.25 µg/mL (≈ 0.551 µM) | 0.25 µg/mL (≈ 0.551 µM) | 0.1 µg/mL (≈ 0.22 µM) | ≤ 0.01 µg/mL | 0.025 µg/mL (≈ 0.0551 µM) | 0.1 µg/mL (≈ 0.22 µM) | 1 µg/mL (≈ 2.2 µM) | 1 µg/mL (≈ 2.2 µM) | –
4 | 4-(Methylthio)benzyl 2-methylmonate [Example 11] | – | – | – | – | – | – | – | – | – | – | – | – | – | – | – | – | – | – | – | – | MIC's against M. suipneumoniae NB12 (M. suipneumoniae NB12): 1.0 µg/mL; MIC's against M. suipneumoniae JF 435 (M. suipneumoniae JF 435): 2.5 µg/mL; MIC's against M. suipneumoniae HK(2) (M. suipneumoniae HK(2)): 2.5 µg/mL; MIC's against M. suipneumoniae Str. 11 (M. suipneumoniae Str. 11): 1.0 µg/mL; MIC's against M. suipneumoniae J2206/183^b [1]: 2.5 µg/mL; MIC's against M. suipneumoniae MS 16 (M. suipneumoniae MS 16): 1.0 µg/mL; MIC's against M. suipneumoniae PW/C/210 [2]: 1.0 µg/mL; MIC's against M. suipneumoniae LABER (M. suipneumoniae LABER): 1.0 µg/mL; MIC's against M. suipneumoniae UCD 1 (M. suipneumoniae UCD 1): 2.5 µg/mL; MIC's against M. suipneumoniae TAM 6N (M. suipneumoniae TAM 6N): 2.5 µg/mL; MIC's against M. suipneumoniae ATCC 25095 [3]: 2.5 µg/mL; MIC's against M. suipneumoniae NCTC 10110 [4]: 2.5 µg/mL; MIC's against M. hyorhinis ATCC 23234 (M. hyorhinis ATCC 23234): 1.0 µg/mL; MIC's against M. hyorhinis ATCC 25021 (M. hyorhinis ATCC 25021): 0.5 µg/mL; MIC's against M. hyosynoviae ATCC 25591 [5]: 0.25 µg/mL; MIC's against M. bovis NCTC 10131 (M. bovis NCTC 10131): 0.05 µg/mL; MIC's against M. bovigenitalium ATCC 14173 [6]: 0.1 µg/mL; MIC's against M. dispar NCTC 10125 (M. dispar NCTC 10125): 0.5 µg/mL; MIC's against M. gallisepticum S6 (M. gallisepticum S6): 10 µg/mL; MIC's against M. pneumoniae ATCC 15492 (M. pneumoniae ATCC 15492): 5.0 µg/mL
5 | CC(CC1OCC(CC2OC2C(C)C(C)O)C(O)C1O)=C(C)C(=O)OCc1ccc(Br)cc1 (stereo not shown) [Example 12, 4-Bromobenzyl 2-methylmonate A] | 5 µg/mL (≈ 9.48 µM) | 10 µg/mL (≈ 19 µM) | 10 µg/mL (≈ 19 µM) | 5 µg/mL (≈ 9.48 µM) | 10 µg/mL (≈ 19 µM) | 5 µg/mL (≈ 9.48 µM) | 5 µg/mL (≈ 9.48 µM) | 5 µg/mL (≈ 9.48 µM) | 10 µg/mL (≈ 19 µM) | 10 µg/mL (≈ 19 µM) | 5 µg/mL (≈ 9.48 µM) | 10 µg/mL (≈ 19 µM) | 2.5 µg/mL (≈ 4.74 µM) | 2.5 µg/mL (≈ 4.74 µM) | 2.5 µg/mL (≈ 4.74 µM) | 0.1 µg/mL (≈ 0.19 µM) | 0.25 µg/mL (≈ 0.474 µM) | 2.5 µg/mL (≈ 4.74 µM) | > 10 µg/mL | 10 µg/mL (≈ 19 µM) | –
